Assay results as given in patent US20220001083A1, “METHOD FOR THE MODIFICATION OF A DEVICE SURFACE BY GRAFTING A CD31-DERIVED PEPTIDE ONTO THE SURFACE OF SAID DEVICE” (BALT EXTRUSION, priority 2018, published 2022).

Tested on: erythrocytes of human peripheral whole blood
Assay: hemolysis assay
Format: cell-based
Details: photograph of the microplate before absorbance reading
Description: The hemolysis assay is a required biocompatibility test for all blood-contacting devices. […] The hemolysis assay protocol we used was adapted from the one used by Bae and coworkers (Bae, I.-H., Park, I.-K., Park, D. S., Lee, H. and Jeong, M. H. 2012. Journal of Materials Science: Materials in Medicine 23 (5): 1259-1269.) as detailed below.
Coated and bare CoCr disks were placed in the wells of a 96-well plate and sterilized by a ten minute incubation in 70° ethanol. The disks were rinsed several times in water prior to a final wash in physiological saline solution (0.9% NaCl). […]
Disk-free wells were used as negative controls and 1% Triton X-100 (which causes the lysis of most erythrocytes through the dissolution of their plasma cell membrane) was added in blood-containing positive control wells. […] Absorbance was measured at 540 nm in a plate reader spectrophotometer (Infinite 200 PRO, TECAN). 540 nm corresponds to the absorbance peak of free hemoglobin, which is released by hemolysis from the erythrocytes. The value of the absorbance at 540 nm is therefore directly proportional to the extent of hemolysis caused by the sample disks in the experimental wells. […]
For each experiment, these observations were quantified by absorbance reading at 540 nm, and the measurements were normalized using the values obtained with the positive and negative controls, according to the following formula: […]

Triton X-100
macroscopic colour of platelet-poor plasma (hemolysis): effective hemolysis
